{"source": "paper PMC9637222", "about": "“Autoinducer-2 and bile salts induce c-di-GMP synthesis to repress the T3SS via a T3SS chaperone” (Nature Communications, 2022)", "key": {"InvF": {"target": "T1, InvF (Salmonella typhimurium, UniProt P69343)", "T1 sequence (P69343 1-216)": "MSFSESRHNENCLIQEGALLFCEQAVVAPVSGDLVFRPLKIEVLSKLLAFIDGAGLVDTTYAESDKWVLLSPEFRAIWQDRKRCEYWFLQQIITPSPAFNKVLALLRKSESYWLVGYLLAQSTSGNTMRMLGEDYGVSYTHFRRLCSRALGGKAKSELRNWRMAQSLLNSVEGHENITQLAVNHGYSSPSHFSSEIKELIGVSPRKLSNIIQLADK", "conditions": "individual replicates, Supplementary Figure 19d", "method": "(§1) ITC measurements were carried out at 20 °C with a Nano ITC Standard Volume isothermal calorimeter (TA Instruments, New Castle, DE) controlled by the ITCRun software. The N-terminal His6 tags of all purified proteins were removed before ITC analysis. For titrations with DPD/AI-2 (Omm Scientific), the tag-free proteins were dialyzed against a Tris buffer (25 mM Tris-HCl, 150 mM NaCl, pH 7.5) and diluted to 70 μM, while DPD/AI-2 was diluted with the same buffer to 700 μM. […] After being degassed, 1 ml of the protein and 250 μl of the ligand solution were added to the sample cell and the syringe, respectively. There were 25 injections per experiment and the stirring speed was 200 rpm. In control experiments, the ligand solution was titrated into the buffer in the sample cell to obtain the heat of dilution. Microcalorimetric data were corrected by subtracting the heats of dilution and fit to the independent binding site model using the NanoAnalyze software.\n(§2) Supplementary Fig. 19 Isotherms representing binding of SicA and its variants with InvF, SipB and SipC as measured by ITC\n(§3) ITC data and plots of injected heat for 25 automatic injections of 100 μM SicA (a, d, f),SicAK27A (b) or SicAN70A (c, e, g) into the sample cellcontaining 10 μM SipB (a-c), InvF (d, e), or SipC (f,g) are shown inthe upper and lower plots, respectively. […]"}, "SipC": {"target": "T2, SipC (Salmonella typhimurium, UniProt E1WAC8)", "T2 construct": "His6 (N, cleaved yes); made in house; host or cells: E. coli BL21(DE3) (pET28a-sipC)", "format": "binding, S. Typhimurium", "conditions": "individual replicates, Supplementary Figure 19f", "method": "as §1, §2, §3"}, "SipB": {"target": "SipB", "set-up": "species or system S. Typhimurium", "conditions": "ITC, individual replicates, Supplementary Figure 19a; read-out: Kd, SicA binding to SipB", "method": "as §1, §2, §3"}, "YeaJ-LBDD239A": {"target": "YeaJ-LBDD239A (Salmonella enterica subsp. enterica serovar Typhimurium, UniProt Q8ZPW4, D239A)", "experiment": "ITC: DPD/AI-2 binding to YeaJ-LBD D239A mutant", "set-up": "species or system S. Typhimurium", "conditions": "head prints YeaJ-LBDY239A, individual experiments, source data Fig. 2d", "method": "as §1"}, "YeaJ-LBD": {"target": "T3, YeaJ-LBD (Salmonella enterica subsp. enterica serovar Typhimurium, UniProt Q8ZPW4)", "T3 sequence (Q8ZPW4 30-304)": "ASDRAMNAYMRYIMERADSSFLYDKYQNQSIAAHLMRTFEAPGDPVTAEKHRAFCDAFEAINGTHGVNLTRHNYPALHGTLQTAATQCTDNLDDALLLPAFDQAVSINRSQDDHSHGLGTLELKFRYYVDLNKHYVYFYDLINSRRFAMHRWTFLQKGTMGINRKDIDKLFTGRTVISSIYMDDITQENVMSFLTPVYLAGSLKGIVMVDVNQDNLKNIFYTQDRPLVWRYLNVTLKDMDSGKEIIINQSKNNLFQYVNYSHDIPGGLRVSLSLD", "experiment": "ITC: DPD/AI-2 binding to YeaJ-LBD", "set-up": "species or system S. Typhimurium", "method": "as §1"}, "[1]": {"target": "KMK13526-LBD (H216Y/Q245D) (Pluralibacter gergoviae, UniProt A0A0J5L7D7, H216Y/Q245D)", "sequence (A0A0J5L7D7 31-310 H216Y/Q245D)": "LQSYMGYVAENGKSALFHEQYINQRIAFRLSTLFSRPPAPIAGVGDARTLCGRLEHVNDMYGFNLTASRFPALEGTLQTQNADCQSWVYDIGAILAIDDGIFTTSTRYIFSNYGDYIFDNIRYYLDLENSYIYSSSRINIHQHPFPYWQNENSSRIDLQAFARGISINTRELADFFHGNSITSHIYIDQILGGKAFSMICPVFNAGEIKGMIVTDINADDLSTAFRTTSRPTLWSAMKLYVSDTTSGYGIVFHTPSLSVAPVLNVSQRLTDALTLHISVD", "conditions": "ITC binding stoichiometry n, individual replicates, Supplementary Figure 7d"}, "YeaJ": {"tested_on": "YeaJ", "experiment": "In vitro DGC activity assay of YeaJ (membrane fractions, HPLC of c-di-GMP)", "format": "biochemical, S. Typhimurium", "conditions": "100 μM GTP; for Concentration of c-di-GMP: 30 °C"}, "S. Typhimurium": {"tested_on": "S. Typhimurium", "experiment": "Cellular c-di-GMP quantification by LC-MS/MS", "format": "cell-based", "conditions": "for Change of intracellular c-di-GMP concentration (in words): exogenous DPD/AI-2 (10 μM, 30 min)", "method": "For stimulation with AI-2, the DPD/AI-2 solution was added to the shaking culture at OD600 of 1.3, followed by another 30 min of incubation at 37 °C. For induction by porcine bile salts and individual bile components (Sigma-Aldrich), substances were added to the static culture at OD600 of 1.1, followed by another 30 min of incubation at 37 °C. About 15 ml of culture was centrifuged and the cells were washed twice with phosphate-buffered saline (PBS, pH 7.0). The cell pellets were resuspended in 500 μl of extraction solution (acetonitrile/methanol/water, 40:40:20, v/v/v) and cooled on ice for 15 min. The samples were boiled for 10 min at 95 °C and then cooled again on ice for 15 min. After centrifugation at 20,000×g and 4 °C for 10 min, supernatants were transferred to new tubes on ice. The remaining pellets were used for two more extraction steps with 500 μl of the extraction solution without heating. Pooled supernatants for each sample were lyophilized, and pellets were resolubilized in 200 μl of distilled water. C-di-GMP concentrations were then measured by LC-MS/MS[63] (AB SCIEX QTRAP 6500+ LC-MS/MS System). Intracellular levels of c-di-GMP were normalized to the number of bacterial cells for each sample."}, "WP_034494714-LBD": {"target": "WP_034494714-LBD (Buttiauxella agrestis, UniProt A0A085GF42)", "sequence (A0A085GF42 27-302)": "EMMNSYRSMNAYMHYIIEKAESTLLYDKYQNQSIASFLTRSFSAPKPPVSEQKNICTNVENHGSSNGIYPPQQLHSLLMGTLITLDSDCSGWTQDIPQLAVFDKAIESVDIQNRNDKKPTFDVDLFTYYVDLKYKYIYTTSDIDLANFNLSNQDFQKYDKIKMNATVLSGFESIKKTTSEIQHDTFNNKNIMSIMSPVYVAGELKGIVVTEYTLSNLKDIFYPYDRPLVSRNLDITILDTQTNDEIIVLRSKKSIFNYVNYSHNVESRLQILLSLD", "experiment": "ITC: DPD/AI-2 binding to WP_034494714-LBD", "conditions": "individual replicates, Supplementary Figure 7c"}, "YeaJ-LBDY210A": {"target": "YeaJ-LBDY210A (Salmonella enterica subsp. enterica serovar Typhimurium, UniProt Q8ZPW4, Y210A)", "experiment": "ITC: DPD/AI-2 binding to YeaJ-LBD Y210A mutant", "set-up": "species or system S. Typhimurium", "conditions": "individual experiments, source data Fig. 2d", "method": "as §1"}, "KMK13526-LBD": {"target": "KMK13526-LBD (Pluralibacter gergoviae, UniProt A0A0J5L7D7)", "sequence (A0A0J5L7D7 31-310)": "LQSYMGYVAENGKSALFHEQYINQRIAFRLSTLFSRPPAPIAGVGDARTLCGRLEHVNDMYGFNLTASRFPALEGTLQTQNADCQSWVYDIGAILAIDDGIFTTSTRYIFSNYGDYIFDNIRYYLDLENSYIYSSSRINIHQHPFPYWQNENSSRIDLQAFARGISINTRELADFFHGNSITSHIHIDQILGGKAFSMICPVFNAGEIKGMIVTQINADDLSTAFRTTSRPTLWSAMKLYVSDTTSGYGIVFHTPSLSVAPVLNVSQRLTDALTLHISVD", "experiment": "ITC: DPD/AI-2 binding to KMK13526-LBD", "conditions": "ITC binding stoichiometry n, individual replicates, Supplementary Figure 7b"}, "WP_000766134-LBD": {"target": "T4, WP_000766134-LBD (Escherichia coli O157:H7, UniProt A0A0H3JEN8)", "T4 sequence (A0A0H3JEN8 31-304)": "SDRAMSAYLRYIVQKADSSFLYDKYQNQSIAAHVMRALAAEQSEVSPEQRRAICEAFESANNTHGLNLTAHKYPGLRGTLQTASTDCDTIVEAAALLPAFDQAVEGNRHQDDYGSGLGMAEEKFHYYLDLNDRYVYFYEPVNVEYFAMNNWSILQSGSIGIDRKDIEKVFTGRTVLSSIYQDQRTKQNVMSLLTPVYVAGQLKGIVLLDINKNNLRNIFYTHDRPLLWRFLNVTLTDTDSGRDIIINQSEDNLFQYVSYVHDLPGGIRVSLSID", "experiment": "ITC: DPD/AI-2 binding to GAPES1 domain of the YeaJ homolog from EHEC O157:H7"}, "[2]": {"conditions": "individual experiments, source data Fig. 1d"}}, "note": "Where “and” joins values, the source holds several entries; their conditions need not be identical. Equal values may be shown once.", "data": [{"molecule": "SicA", "values": [{"measurement": "n, SicA binding to InvF", "setting": "InvF; ITC binding stoichiometry n", "result": "1.00 and 1.13 and 1.16"}, {"measurement": "Kd", "setting": "InvF; read-out: Kd, SicA binding to InvF, ITC", "result": "470 nM and 420 nM and 490 nM"}, {"measurement": "n, SicA binding to SipC", "setting": "SipC; ITC binding stoichiometry n", "result": "1.04 and 1.18 and 1.02"}, {"measurement": "Kd", "setting": "SipC; ITC, read-out: Kd, SicA binding to SipC", "result": "670 nM and 550 nM"}, {"measurement": "Kd", "setting": "SipB", "result": "500 nM and 560 nM and 540 nM"}]}, {"molecule": "CC(=O)C(=O)[C@@H](O)CO", "note": "[DPD/AI-2, autoinducer-2]", "values": [{"measurement": "Kd", "setting": "YeaJ-LBDD239A", "result": 17000, "unit": "nM"}, {"measurement": "n (complex stoichiometry)", "setting": "YeaJ-LBDD239A", "result": "0.97 and 0.93"}, {"measurement": "Kd", "setting": "YeaJ-LBD; 20 °C, mean ± s.d. of three independent experiments", "result": "150 ± 20", "unit": "nM"}, {"measurement": "Kd", "setting": "YeaJ-LBD; [2]", "result": "160 nM and 130 nM"}, {"measurement": "n (complex stoichiometry)", "setting": "YeaJ-LBD; [2]", "result": "1.20 and 1.19 and 1.04"}, {"measurement": "n, DPD/AI-2 binding to KMK13526-LBDH216Y/Q245D", "setting": "[1]", "result": "1.11 and 1.03 and 1.17"}, {"measurement": "Concentration of c-di-GMP", "setting": "YeaJ; 100 μM DPD/AI-2, 30 min", "result": "19.68 µM and 20.02 µM and 21.70 µM"}, {"measurement": "Concentration of c-di-GMP", "setting": "YeaJ; 100 μM DPD/AI-2, 60 min", "result": "32.50 µM and 32.49 µM and 31.69 µM"}, {"measurement": "Concentration of c-di-GMP", "setting": "YeaJ; 200 μM DPD/AI-2, 30 min", "result": "39.23 µM and 36.03 µM and 36.70 µM"}, {"measurement": "Concentration of c-di-GMP", "setting": "YeaJ; 200 μM DPD/AI-2, 60 min", "result": "44.10 µM and 43.39 µM and 41.58 µM"}, {"measurement": "Effect on DGC activity of YeaJ in synthesizing c-di-GMP (in words)", "setting": "YeaJ; in vitro, membrane fractions", "result": "stimulates the activity of YeaJ"}, {"measurement": "Change of intracellular c-di-GMP concentration (in words)", "setting": "S. Typhimurium; ΔluxS mutant", "result": "significant increase"}, {"measurement": "c-di-GMP (fmol/107 cells)", "setting": "S. Typhimurium; ΔluxS, 10 μM DPD/AI-2 for 30 min, LB, OD600 1.3, biological replicates", "result": "31.06 fmol/107 cells and 29.99 fmol/107 cells and 27.56 fmol/107 cells"}, {"measurement": "Change of intracellular c-di-GMP concentration (in words)", "setting": "S. Typhimurium; ΔyeaJΔluxS mutant", "result": "did not increase"}, {"measurement": "n, DPD/AI-2 binding to WP_034494714-LBD", "setting": "WP_034494714-LBD; ITC binding stoichiometry n", "result": "0.94 and 0.97 and 0.98"}, {"measurement": "Kd", "setting": "WP_034494714-LBD; read-out: Kd, DPD/AI-2 binding to WP_034494714-LBD, ITC", "result": "32000 nM and 39000 nM and 38000 nM"}, {"measurement": "Kd", "setting": "YeaJ-LBDY210A", "result": "23000 nM and 29000 nM and 26000 nM"}, {"measurement": "n (complex stoichiometry)", "setting": "YeaJ-LBDY210A", "result": "1.02 and 0.93 and 1.04"}, {"measurement": "n, DPD/AI-2 binding to KMK13526-LBD", "setting": "KMK13526-LBD", "result": "0.93 and 1.03 and 0.86"}, {"measurement": "n, DPD/AI-2 binding to WP_000766134-LBD", "setting": "WP_000766134-LBD; ITC binding stoichiometry n, individual replicates, Supplementary Figure 7a", "result": "1.18 and 1.17 and 1.13"}, {"measurement": "AI-2 binding affinity (in words)", "setting": "WP_000766134-LBD; ITC, GAPES1 domain of the YeaJ homolog from EHEC O157:H7", "result": "high affinity"}, {"measurement": "Kd", "setting": "WP_000766134-LBD; read-out: Kd, DPD/AI-2 binding to WP_000766134-LBD, ITC, individual replicates, Supplementary Figure 7a", "result": "120 nM and 170 nM"}]}]}
